Measured values: ChEMBL document CHEMBL3108686, “Cytotoxic dammarane-type triterpenoids from the stem bark of Dysoxylum binecteriferum” (J Nat Prod, 2014)

Key:
MCF7 = test: Cytotoxicity against human MCF7 cells assessed as cell viability after 48 hrs by MTT assay; type: functional, cell-based; details: MCF7, 48 h
HepG2 = test: Cytotoxicity against human HepG2 cells assessed as cell viability after 48 hrs by MTT assay; type: functional, cell-based; details: HepG2, 48 h
RAW264.7 = test: Antiinflammatory activity in mouse RAW264.7 cells assessed as inhibition of LPS-stimulated nitric oxide production after 24 hrs by Griess assay; type: functional, cell-based; details: RAW264.7, 24 h
A549 = test: cells; details: Homo sapiens, A549, 48 h
Description: Cytotoxicity against human A549 cells assessed as cell viability after 48 hrs by MTT assay

SMILES	IC50 (RAW264.7)	IC50 (A549)	IC50 (MCF7)	IC50 (HepG2)
CC1(C)C(=O)CC[C@]2(C)[C@H]3CC[C@@H]4[C@@H]([C@]5(C)CCC(=O)O5)CC[C@@]4(C)[C@]3(C)CC[C@@H]12 [CABRALELACTONE]	> 100 µM	> 50 µM	> 50 µM	> 50 µM
CC(C)(O)[C@@H]1CC[C@@](C)([C@H]2CC[C@]3(C)[C@@H]2CC[C@@H]2[C@@]4(C)CC[C@@H](O)C(C)(C)[C@@H]4CC[C@]23C)O1	> 100 µM	> 50 µM	> 50 µM	> 50 µM
CC(C)(O)[C@H]1CC[C@@](C)([C@H]2CC[C@]3(C)[C@@H]2CC[C@@H]2[C@@]4(C)CC[C@@H](O)C(C)(C)[C@@H]4CC[C@]23C)O1	> 100 µM	> 50 µM	> 50 µM	> 50 µM
CC1(C)C(=O)CC[C@]2(C)[C@H]3CC[C@@H]4[C@@H]([C@]5(C)C[C@H](O)C(=O)O5)CC[C@@]4(C)[C@]3(C)CC[C@@H]12	> 100 µM	12.4 µM	26.7 µM	8 µM
C=C(CO)[C@@H]1CC[C@]2(C)[C@H](CC[C@@H]3[C@@H]([C@]4(C)CC[C@@H](C(C)(C)O)O4)CC[C@]32C)[C@@]1(C)CCC(=O)OC	> 100 µM	> 50 µM	> 50 µM	28 µM
CC(C)(O)[C@@H]1CC[C@@](C)([C@H]2CC[C@]3(C)[C@@H]2CC[C@@H]2[C@@]4(C)CCC(=O)[C@@](C)(CO)[C@@H]4CC[C@]23C)O1	> 100 µM	28.2 µM	18.3 µM	6.5 µM
CCOC(=O)CC[C@@]1(C)[C@H]([C@@](C)(O)CO)CC[C@]2(C)[C@@H]1CC[C@@H]1[C@@H]([C@]3(C)CC[C@@H](C(C)(C)O)O3)CC[C@]12C	> 100 µM	> 50 µM	> 50 µM	> 50 µM
CC(C)(O)[C@@H]1CC[C@@](C)([C@H]2CC[C@]3(C)[C@@H]2CC[C@@H]2[C@@]4(C)CCC(=O)[C@](C)(CO)[C@@H]4CC[C@]23C)O1	> 100 µM	> 50 µM	> 50 µM	> 50 µM
C=C(C)[C@@H]1CC[C@]2(C)[C@H](CC[C@@H]3[C@@H]([C@]4(C)CC[C@H](C(C)(C)O)O4)CC[C@]32C)[C@@]1(C)CCC(=O)OC [METHYL SHOREATE]	> 100 µM	12.9 µM	5.6 µM	6.3 µM
CC1(C)[C@H](O)CC[C@]2(C)[C@H]3CC[C@@H]4[C@@H]([C@]5(C)C=CC(=O)O5)CC[C@@]4(C)[C@]3(C)CC[C@@H]12	> 100 µM	> 50 µM	> 50 µM	> 50 µM
CC1(C)[C@H](O)CC[C@]2(C)[C@H]3CC[C@@H]4[C@@H]([C@]5(C)CCC(=O)O5)CC[C@@]4(C)[C@]3(C)CC[C@@H]12 [CABRALEAHYDROXYLACTONE]	> 100 µM	> 50 µM	> 50 µM	> 50 µM

Now from value to compound, other results behind:

IC50 (RAW264.7)	IC50 (A549)	SMILES	IC50 (MCF7)	IC50 (HepG2)
> 100 µM	35 µM	C=C(CC[C@H](O)C(C)(C)O)[C@H]1CC[C@]2(C)[C@@H]1CC[C@@H]1[C@@]3(C)CC[C@@H](O)C(C)(C)[C@@H]3CC[C@]12C	16.7 µM	5.9 µM
64.9 µM	> 50 µM	CC(C)(O)[C@@H]1CC[C@@](C)([C@H]2CC[C@]3(C)[C@@H]2CC[C@@H]2[C@@]4(C)CC[C@@H](O)[C@@](C)(CO)[C@@H]4CC[C@]23C)O1	30.4 µM	20.2 µM
> 100 µM	> 50 µM	CCOC(=O)CC[C@@]1(C)[C@H]([C@](C)(O)CO)CC[C@]2(C)[C@@H]1CC[C@@H]1[C@@H]([C@]3(C)CC[C@H](C(C)(C)O)O3)CC[C@]12C	> 50 µM	> 50 µM
> 100 µM	> 50 µM	C=C(C)[C@@H]1CC[C@]2(C)[C@H](CC[C@@H]3[C@@H]([C@]4(C)CC[C@@H](C(C)(C)O)O4)CC[C@]32C)[C@@]1(C)CCC(=O)OC	> 50 µM	> 50 µM
> 100 µM	> 50 µM	CC(C)(O)[C@H]1CC[C@@](C)([C@H]2CC[C@]3(C)[C@@H]2CC[C@@H]2[C@@]4(C)CCC(=O)[C@@](C)(CO)[C@@H]4CC[C@]23C)O1	> 50 µM	> 50 µM
> 100 µM	> 50 µM	CC(C)(O)[C@H]1CC[C@@](C)([C@H]2CC[C@]3(C)[C@@H]2CC[C@@H]2[C@@]4(C)CC[C@@H](O)[C@@](C)(CO)[C@@H]4CC[C@]23C)O1	23 µM	> 50 µM
57.7 µM	> 50 µM	CCOC(=O)CC[C@@]1(C)[C@H]([C@@](C)(O)CO)CC[C@]2(C)[C@@H]1CC[C@@H]1[C@@H]([C@]3(C)CC[C@H](C(C)(C)O)O3)CC[C@]12C	> 50 µM	> 50 µM
31.8 µM	> 50 µM	C=C(C)[C@@H]1CC[C@]2(C)[C@H](CC[C@@H]3[C@@H]([C@]4(C)CCC(=O)O4)CC[C@]32C)[C@@]1(C)CCC(=O)OC	> 50 µM	> 50 µM
> 100 µM	> 50 µM	CCOC(=O)CC[C@@]1(C)[C@H]([C@](C)(O)CO)CC[C@]2(C)[C@@H]1CC[C@@H]1[C@@H]([C@]3(C)CC[C@@H](C(C)(C)O)O3)CC[C@]12C	> 50 µM	> 50 µM
> 100 µM	> 50 µM	C=C(C)[C@@H]1CC[C@]2(C)[C@H](CC[C@@H]3[C@@H]([C@]4(C)CCC(=O)O4)CC[C@]32C)[C@@]1(C)CCC(=O)OCC	> 50 µM	38.4 µM
> 100 µM	> 50 µM	CC(C)(O)[C@@H]1CC[C@@](C)([C@H]2CC[C@]3(C)[C@@H]2CC[C@@H]2[C@@]4(C)CCC(=O)C(C)(C)[C@@H]4C[C@H](O)[C@]23C)O1	> 50 µM	> 50 µM
> 100 µM	12.9 µM	C=C(C)[C@@H]1CC[C@]2(C)[C@H](CC[C@@H]3[C@@H]([C@]4(C)CC[C@H](C(C)(C)O)O4)CC[C@]32C)[C@@]1(C)CCC(=O)OCC	18.4 µM	14.9 µM
> 100 µM	> 50 µM	C=C(C)[C@@H]1CC[C@]2(C)[C@H](CC[C@@H]3[C@@H]([C@]4(C)CCC(=O)O4)CC[C@]32C)[C@@]1(C)CCC(=O)O	> 50 µM	> 50 µM
> 100 µM	> 50 µM	C=C(C)[C@@H]1CC[C@]2(C)[C@H](CC[C@@H]3[C@@H]([C@]4(C)CC[C@H](O)C(C)(C)O4)CC[C@]32C)[C@@]1(C)CCC(=O)OC	> 50 µM	> 50 µM
